Read-outs that look alike come from different tables or passages of the source.
Experiments:
[1] = Tablet stability at high temperature (60° C.), high humidity (92.5% RH), −20° C.; format: physicochemical
[2] = Concentration of drug-containing HP-β-CD preparation after filtration (HPLC); conditions: 21 mg/ml drug-containing preparation in 30% HP-β-CD, pH 1.2; API not completely dissolved after 30 minutes ultrasound; 0.45 μm PES filter
[3] = for Water (water-addition-precipitating critical point of drug solution): 100 mg drug; for dissolution in aqueous solution containing surfactant: magnetic stirring 1 hour
Description: In this study, a dissolution test was performed using a single non-aqueous solvent ethanol.
In this study, a dissolution test was also performed using composite solvents composed of PEG400 or PEG200 and absolute ethanol, respectively.
In addition, in this study, dissolution tests were also performed using a single non-aqueous solvent propylene glycol, or a composite solvent composed of propylene glycol and other non-aqueous solvent.
Next, the dilution stability of these two solvent systems was tested.

[4] = API 0.5 mg/ml, 20% γ-CD, molar ratio 174:1
Description: (§1) Different kinds of cyclodextrins were dissolved with an aqueous hydrochloric acid solution (0.1N) having a pH value of 1.2 to determine the saturation concentration of each cyclodextrin.
A certain amount of API was weighed and added into an appropriate volume of the cyclodextrin solution. […] The clear solution after the pH adjustment was left to stand to observe the state of the solution after standing for 2 hours, 4 hours, and 24 hours.

[5] = Maximum solubility of cyclodextrins in hydrochloric acid solution pH 1.2
Description: as §1
(1) A certain amount of α-, β- and γ-cyclodextrin were weighed and added into a 10 mL volumetric flask, then an aqueous hydrochloric acid solution of pH 1.2 was gradually added until reaching the scale of the flask, and the flask was shocked and ultrasound was performed to dissolve the cyclodextrin. The maximum amount of cyclodextrin capable of being dissolved in a 10 mL solution was recorded.

## O=C(Cc1ccc(-c2ccc(N3CCOCC3)cc2)cn1)NCc1cccc(F)c1.O=S(=O)(O)c1ccccc1 [KX2-361.benzene sulfonate]
[1]; 0 day
  Total impurity (%): 0.33%
[1]; High humidity, 20 days
  Total impurity (%): 0.31%
[1]; High temperature, 10 days
  Total impurity (%): 0.32%
[1]; High temperature, 20 days
  Total impurity (%): 0.32%
[1]; −20° C., 20 days
  Total impurity (%): 0.36%
[2]
  concentration after filtration, calibrated with HPLC: 20660 µg/mL
[3]; Cremophor EL 17.1 g, 40° C.
  Water (water-addition-precipitating critical point of drug solution): 6.7 g
[3]; Solutolo HS-15 10 g, 40° C.
  Water (water-addition-precipitating critical point of drug solution): 4.5 g
[3]; Solutolo HS-15 15 g, 28° C.
  Water (water-addition-precipitating critical point of drug solution): 8.7 g
[3]; Solutolo HS-15 20 g, 28° C.
  Water (water-addition-precipitating critical point of drug solution): 12.6 g
[3]; drug containing 10 mg of KX2-361 in 0.6% Poloxamer 188 aqueous solution (50 ml)
  dissolution in aqueous solution containing surfactant: failed to completely dissolve
[3]; drug containing 10 mg of KX2-361 in 2% Tween80 aqueous solution (50 ml)
  dissolution in aqueous solution containing surfactant: failed to completely dissolve
[3]; drug containing 10 mg of KX2-361 in 8% Solutol HS15 aqueous solution (50 ml)
  dissolution in aqueous solution containing surfactant: failed to completely dissolve
[3]; drug containing 10 mg of KX2-361 in 10% Cremophor EL aqueous solution (50 ml)
  dissolution in aqueous solution containing surfactant: failed to completely dissolve
[3]; drug containing 50 mg of KX2-361 in 20 ml of propylene glycol alone, a trace of small particles still present
  dissolution in propylene glycol: could substantially be dissolved
[3]; ethanol (95% v/v)
  solubility in ethanol: 1120 to 2380 µg/mL
[4]
  Solution phenomenon when the pH value was adjusted to 4: turbid

## OC[C@H]1O[C@@H]2O[C@H]3[C@H](O)[C@@H](O)[C@@H](O[C@H]4[C@H](O)[C@@H](O)[C@@H](O[C@H]5[C@H](O)[C@@H](O)[C@@H](O[C@H]6[C@H](O)[C@@H](O)[C@@H](O[C@H]7[C@H](O)[C@@H](O)[C@@H](O[C@H]8[C@H](O)[C@@H](O)[C@@H](O[C@H]1[C@H](O)[C@H]2O)O[C@@H]8CO)O[C@@H]7CO)O[C@@H]6CO)O[C@@H]5CO)O[C@@H]4CO)O[C@@H]3CO [β-cyclodextrin]
[5]
  maximum solubility: about 1%

## OC[C@H]1O[C@@H]2O[C@H]3[C@H](O)[C@@H](O)[C@@H](O[C@H]4[C@H](O)[C@@H](O)[C@@H](O[C@H]5[C@H](O)[C@@H](O)[C@@H](O[C@H]6[C@H](O)[C@@H](O)[C@@H](O[C@H]7[C@H](O)[C@@H](O)[C@@H](O[C@H]8[C@H](O)[C@@H](O)[C@@H](O[C@H]9[C@H](O)[C@@H](O)[C@@H](O[C@H]1[C@H](O)[C@H]2O)O[C@@H]9CO)O[C@@H]8CO)O[C@@H]7CO)O[C@@H]6CO)O[C@@H]5CO)O[C@@H]4CO)O[C@@H]3CO [γ-cyclodextrin]
[5]
  maximum solubility: about 20%

## OC[C@H]1O[C@@H]2O[C@H]3[C@H](O)[C@@H](O)[C@@H](O[C@H]4[C@H](O)[C@@H](O)[C@@H](O[C@H]5[C@H](O)[C@@H](O)[C@@H](O[C@H]6[C@H](O)[C@@H](O)[C@@H](O[C@H]7[C@H](O)[C@@H](O)[C@@H](O[C@H]1[C@H](O)[C@H]2O)O[C@@H]7CO)O[C@@H]6CO)O[C@@H]5CO)O[C@@H]4CO)O[C@@H]3CO [α-cyclodextrin]
[5]; aqueous hydrochloric acid solution of a pH value of 1.2
  maximum solubility: about 8%

— patent US11007141B2, “Oral preparation and preparation method thereof” (GUANGZHOU XIANGXUE PHARMACEUTICAL CO., LTD., priority 2015, dated 2021)
